Results reported in patent publication US20220396818A1, “POLYNUCLEOTIDE SYNTHESIS METHOD, KIT AND SYSTEM” (Oxford Nanopore Technologies PLC, priority 2019, published 2022).

Assays:
[1] = system: Therminator X DNA polymerase; assay: Incorporation of 3′-O-azidomethyl-dNTPs to the 3′ end of blunt-ended DNA by Therminator X DNA polymerase (gel); assay type: biochemical, Thermococcus species 9° N; details: presence of Mn2+ ions, 37° C.
Protocol: • 1. 5 μl of 10× Thermopol® buffer (20 mM Tris-HCl, 10 mM (NH4)2SO4, 10 mM KCl, 2 mM MgSO4, 0.1% Triton® X-100, pH 8.8, New England Biolabs) was mixed with 33.5 μl of sterile deionized water (ELGA VEOLIA) in a 1.5 ml Eppendorf tube. • 2. 2 μl of 20 μM primer (40 pmol, 1 equiv) (SEQ ID: NO: 68, FIG. 56a) and 3 μl of 20 μM template (60 pmol, 1.5 equiv) (SEQ ID: NO: 69, FIG. 56a) were added to the reaction mixture. • 3. 3′-O-modified-dTTP (2 μl of 100 μM) and MnCl2 (2.5 μl of 40 mM) were added. • 4. 2 μl of Therminator X DNA polymerase (20 U, New England BioLabs) was then added. • 5. The reaction was incubated for 30 minutes at 37° C. • 6. The reaction was stopped by addition of TBE-Urea sample buffer (Novex). • 7. The reaction was separated on polyacrylamide gel (15%) TBE buffer and visualized by ChemiDoc MP imaging system (BioRad).

[2] = system: Therminator IX DNA polymerase; assay: Incorporation of 3′-O-modified-dNTPs opposite complementary base by Therminator IX DNA polymerase, with helper strand (gel); assay type: biochemical, Thermococcus species 9° N
Protocol: • 1. 2 μl of 10× Thermopol® buffer (20 mM Tris-HCl, 10 mM (NH4)2SO4, 10 mM KCl, 2 mM MgSO4, 0.1% Triton® X-100, pH 8.8, New England BioLabs) was mixed with 12.25 μl of sterile deionized water (ELGA VEOLIA) in 1.5 ml Eppendorf tube. • 2. 0.5 μl of 10 μM primer (5 pmol, 1 equiv) (SEQ ID NO: 22, FIG. 23j) and 0.75 μl of 10 μM template-A/G/T/C ([…], 1.5 equiv) (SEQ ID NOS: 23 to 26, FIG. 23j) and 1 μl of 10 μM helper strand-T/C/A/G (10 pmol, 2 equiv) (SEQ ID NOS: 27 to 30, FIG. 23j) were added to the reaction mixture. • 3. 3′-O-modified-dTTP/dCTP/dATP/dGTP (2 μl of 100 μM) and MnCl2 (1 μl of 40 mM) were added. • 4. 1.5 μl of Therminator IX DNA polymerase (15 U, New England BioLabs) was then added. • 5. […] The reaction was stopped by addition of TBE-Urea sample buffer (Novex). • 7. The reaction was separated on polyacrylamide gel (15%) TBE buffer and visualized by ChemiDoc MP imaging system (BioRad).
• 1. 5 μl of reaction mixture was added to 5 μl of TBE-Urea sample buffer (Novex) in a sterile 1.5 ml Eppendorf tube and heated to 95° C. for 5 minutes using a heat ThermoMixer (Eppendorf). • 2. 5 μl of the sample were then loaded into the wells of a 15% TBE-Urea gel 1.0 mm×10 well (Invitrogen) which contained preheated 1×TBE buffer Thermo Scientific (89 mM Tris, 89 mM boric acid and 2 mM EDTA). • 3. […]

DNA containing inosine [3] = assay: Two-step cleavage of inosine-containing oligonucleotide with hAAG and base or Endo VIII (gel); assay type: biochemical
Protocol: A cleavage reaction on oligonucleotides was carried out using the procedure below: • 1. A pipette (Gilson) was used to transfer 41 μl sterile distilled water (ELGA VEOLIA) into a 1.5 ml Eppendorf tube. • 2. 50 of 10× ThermoPol® reaction buffer NEB (20 mM Tris-HCl, 10 mM (NH4)2SO4, 10 mM KCl, 2 mM MgSO4, 0.1% Triton® X-100, pH 8.8) were then added into the same Eppendorf tube. • 3. 10 each of oligonucleotides (FIG. 18e); template (SEQ ID NO: 3) or any fluorescently tagged long oligo strand, primer with T (SEQ ID NO: 4) and control (SEQ ID NO: 5) all at 5 pmols were added into the same tube. • 4. 10 of Human Alkyladenine DNA Glycosylase (hAAG) NEB (10 units/0) was added into the same tube. • 5. Reaction mixture was then gently mixed by resuspension with a pipette, centrifuged at 13,000 rpm for 5 seconds and incubated at 37° C. for 1 hour. • 6. Typically after incubation time had elapsed, the reaction was terminated by enzymatic heat inactivation (i.e. 65° C. for 20 minutes).
• 1. 2 μl (10-100 ng/0) DNA was added into a sterile 1.5 ml Eppendorf tube. • 2. 40 μl (0.2M) NaOH or 1.5 μl Endo VIII NEB (10 units/0) and 5 μl 10× Reaction Buffer NEB (10 mM Tris-HCl, 75 mM NaCl, 1 mM EDTA, pH 8 @ 25° C.) was also added into the same tube and gently mixed by resuspension and centrifugation at 13000 rpm for 5 sec. • 3. […]

DNA containing inosine [4] = assay: One-step cleavage of oligonucleotide with Endonuclease V (gel); assay type: biochemical; details: 37° C.
Protocol: Cleavage reaction on oligonucleotides was carried out using the procedure below: • 1. A pipette (Gilson) was used to transfer 41 μl sterile distilled water (ELGA VEOLIA) into a 1.5 ml Eppendorf tube. • 2. 50 of 10× Reaction Buffer® NEB (50 mM Potassium Acetate, 20 mM Tris-acetate, 10 mM Magnesium Acetate, 1 mM DTT, pH 7.9@25° C.) was then added into the same Eppendorf tube. • 3. 1 μl each of oligonucleotides (FIG. 24d); Template (SEQ ID NO: 31) or any fluorescently tagged long oligo strand, Primer with T (SEQ ID NO: 32) and control (SEQ ID NO: 33) and helper strand (SEQ ID NO: 34), all at 5 pmols, were added into the same tube. • 4. 1 μl of Human Endonuclease V (Endo V) NEB (10 units/μl) was added into the same tube. • 5. Reaction mixture was then gently mixed by resuspension with a pipette, centrifuged at 13,000 rpm for 5 seconds and incubated at 37° C. for 1 hour. • 6. Typically after incubation time had elapsed, reaction was terminated by enzymatic heat inactivation (i.e. 65° C. for 20 minutes).
(§1) • 1. 5 μl of DNA and TBE-Urea sample buffer (Novex) was added into a sterile 1.5 ml Eppendorf tube and heated to 95° C. for 2 minutes using a heat thermoblock (Eppendorf). • 2. The DNA mixtures were then loaded into the wells of a 15% TBE-Urea gel 1.0 mm×10 well (Invitrogen) which contained preheated 1×TBE buffer Thermo Scientific (89 mM Tris, 89 mM boric acid and 2 mM EDTA). • 3. X-cell sure lock module (Novex) was fastened in place and electrophoresis performed at the following conditions; 260V, 90 Amps for 40 minutes at room temperature. • 4. Detection and visualization of DNA in the gel was carried out with Chemidoc MP (BioRad) using Cy3 LEDS. Visualization and analysis was carried out on the Image lab 2.0 platform.

Hairpin Oligonucleotide = assay: Cleavage of hairpin oligonucleotide with Endonuclease V (gel); assay type: biochemical; details: 37° C.
Protocol: Cleavage reaction on hairpin oligonucleotides was carried out using the procedure below: • 1. A pipette (Gilson) was used to transfer 43 μl sterile distilled water (ELGA VEOLIA) into a 1.5 ml Eppendorf tube. • 2. 50 of 10× Reaction Buffer® NEB (50 mM potassium acetate, 20 mM Tris-acetate, 10 mM magnesium acetate, 1 mM DTT, pH 7.9@25° C.) was then added into the same Eppendorf tube. • 3. 111 of hairpin oligonucleotide (SEQ ID NO: 45, FIG. 28c) having an amount of 5 pmols was added into the same tube. • 4. 10 of Human Endonuclease V (Endo V) NEB (30 units/μl) was added into the same tube. • 5. […] Typically after incubation time had elapsed, the reaction was terminated by enzymatic heat inactivation (i.e. 65° C. for 20 minutes).
as §1, with “ThermoMixer” for “thermoblock”, “ChemiDoc” for “Chemidoc”

Molecule: 3′-O-azidomethyl-dATP
- Incorporation efficiency [1]: > 99%

Molecule: 3′-O-azidomethyl-dCTP
- Incorporation efficiency [1]: > 90%

Molecule: 3′-O-azidomethyl-dGTP
- Incorporation efficiency [1]: > 99%

Molecule: 3′-O-azidomethyl-dTTP
- primer remains unextended ([2]; after 20 minutes at 37° C. and 47° C.): 10%
- Incorporation ([2]; in the presence of a helper strand, after 5 minutes): 90%
- Incorporation efficiency [1]: > 99%

Molecule: hAAG DNA glycosylase: Human Alkyladenine DNA Glycosylase (hAAG) NEB
- yield of cleaved DNA (cleaved to uncleaved DNA ratio) (DNA containing inosine [3]; with a helper strand): 50%
- yield of cleaved DNA (cleaved to uncleaved DNA ratio) (DNA containing inosine [3]; without a helper strand): 10%

B1: Endo V: Human Endonuclease V (Endo V) NEB (protein, UniProt Q8N8Q3 1-282, looked up)
Endonuclease V: MALEAAGGPPEETLSLWKREQARLKAHVVDRDTEAWQRDPAFSGLQRVGGVDVSFVKGDSVRACASLVVLSFPELEVVYEESRMVSLTAPYVSGFLAFREVPFLLELVQQLREKEPGLMPQVLLVDGNGVLHHRGFGVACHLGVLTDLPCVGVAKKLLQVDGLENNALHKEKIRLLQTRGDSFPLLGDSGTVLGMALRSHDRSTRPLYISVGHRMSLEAAVRLTCCCCRFRIPEPVRQADICSREHIRKSLGLPGPPTPRSPKAQRPVACPKGDSGESSALC
- yield of cleaved DNA (cleaved to uncleaved DNA ratio) (DNA containing inosine [4]; positive control that contained both full length strands): 80%
- DNA cleavage yield (DNA containing inosine [4]; with a helper strand): > 99%
- yield of cleaved DNA (DNA containing inosine [4]; without a helper strand): > 99%
- yield of digested DNA (Hairpin Oligonucleotide; after 5 minutes): ~98%
- yield of digested DNA (Hairpin Oligonucleotide; after 10 minutes): ~99%
- yield of digested DNA (Hairpin Oligonucleotide; after 30 minutes): ~99%
- yield of digested DNA (Hairpin Oligonucleotide; after 1 hr): ~99%
